One assay has as its target T1, glucagon receptor (GCGR) (Homo sapiens, UniProt P47871).
T1 construct: expressed in transfected cells; host or cells: CHO-K1
The experiment in a line: Glucagon cAMP inhibition assay (Cisbio cAMP Dynamic 2 HTRF). It is filed as cell-based. As to conditions: GCGR overexpressed CHO-K1 cells or human primary hepatocytes (not specified); glucagon at EC50. In a few lines: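 GCGR-overexpressing CHO-K1 cells or human primary hepatocytes in HBSS with 0.1% BSA and 800 nM IBMX, pre-incubated 30 min with compound (1% DMSO final), then stimulated 30 min at room temperature with glucagon at its EC50. cAMP measured by HTRF after 60 min lysis; IC50 from non-linear regression.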
A general note: TR-FRET usually uses a lanthanide donor and a delayed reading to cut background.

The next assay deals with GCGR (Homo sapiens, UniProt P47871). The experiment in a line: I125-glucagon binding assay (competition, GCGR membrane fractions). Conditions: competition with I125-glucagon 0.0625 nM; membrane fractions from GCGR overexpressed CHO-K1 cells. Details: expressed in transfected cells; host or cells: CHO-K1. In a few lines: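 Membranes from CHO-K1 cells overexpressing GCGR (7.5 µg/well) were preincubated 5 min with serially diluted compound in 50 mM Tris pH 7.4, 0.5% BSA. I125-glucagon was then added at 0.0625 nM final and incubated 30 min at 25 °C. After filtration, bound radioactivity was counted and IC50 derived by non-linear regression.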
Chain of GCGR (P47871 26-477, species assumed): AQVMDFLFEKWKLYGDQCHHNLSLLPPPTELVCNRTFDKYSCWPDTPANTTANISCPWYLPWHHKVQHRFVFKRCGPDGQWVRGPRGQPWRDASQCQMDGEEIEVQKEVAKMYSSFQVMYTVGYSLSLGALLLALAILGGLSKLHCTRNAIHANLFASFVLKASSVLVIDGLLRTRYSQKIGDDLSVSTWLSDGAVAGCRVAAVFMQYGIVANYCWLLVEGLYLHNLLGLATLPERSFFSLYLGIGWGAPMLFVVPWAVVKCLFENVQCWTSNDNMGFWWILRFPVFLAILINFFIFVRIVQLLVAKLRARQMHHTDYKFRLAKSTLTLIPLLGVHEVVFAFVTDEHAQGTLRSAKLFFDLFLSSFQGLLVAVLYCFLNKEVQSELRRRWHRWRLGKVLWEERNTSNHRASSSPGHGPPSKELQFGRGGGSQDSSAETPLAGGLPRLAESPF

The source of these data is US10882837B2, “Amide compounds and use thereof” (ALPHALA CO., LTD., priority 2017, dated 2021).

Where only a bound is given, the exact number is not on record here.

T1 sequence (P47871 26-477, species assumed): as above

Turning to `CC(C)[C@@H](Nc1ccc(-c2nnc(-c3ccccc3)o2)cc1)c1ccc(C(=O)NCCC(=O)O)cc1` [Compound 3-15, (R)-3-(4-(2-methyl-1-(4-(5-phenyl-1,3,4-oxadiazol-2-yl)phenylamino)propyl)benzamido)propanoic acid], the IC50 – broadly, the midpoint of a concentration-inhibition curve – against glucagon receptor (GCGR) was 632 nM; at GCGR, 21 nM.
On the same counts, the results for `CCCCC(Nc1ccc(-c2nnc(-c3ccccc3)o2)cc1)c1ccc(C(=O)NCCC(=O)OCC)cc1` (centres unmarked) [Compound 3-3, ethyl 3-(4-(1-((4-(5-phenyl-1,3,4-oxadiazol-2-yl)phenyl)amino)pentyl)benzamido)propanoate] are 933 nM and 1320 nM.
As for `CC(C)CC(Nc1ccc(C(=O)NCCC(=O)O)cc1)c1ccc(-c2nnc(C(F)(F)F)o2)cc1` (centres unmarked) [Compound 1-9, 3-(4-((3-Methyl-1-(4-(5-(trifluoromethyl)-1,3,4-oxadiazol-2-yl)phenyl)butyl)amino)benzamido)propanoic acid], the IC50 against glucagon receptor (GCGR) is 17100 nM; on GCGR, 956 nM.
On the same counts, the results for `CCOC(=O)CCNC(=O)c1ccc(N[C@@H](c2ccc(-c3nnc(-c4ccccc4)o3)cc2)C(C)CC)cc1` (stereo partly drawn) [Compound 1-48, ethyl 3-(4-(((1R)-2-methyl-1-(4-(5-phenyl-1,3,4-oxadiazol-2-yl)phenyl)butyl)amino)benzamido)propanoate] are 164 nM and more than 30000 nM.
`CCOC(=O)CCNC(=O)c1ccc(C(Nc2ccc(-c3nnc(-c4ccccc4)o3)cc2)C(C)C)cc1` (centres unmarked) [Compound 3-4]: the IC50 against glucagon receptor (GCGR) turned out to be 1230 nM; at GCGR, 2790 nM.
On the same counts, the results for `CC(C)[C@H](Nc1ccc(C(=O)NCCC(=O)O)cc1)c1ccc(-c2nc3ccccc3s2)cc1` [Compound 4-26, (S)-3-(4-((1-(4-(benzo[d]thiazol-2-yl)phenyl)-2-methylpropyl)amino)benzamido)propanoic acid] are 1020 nM and 42.3 nM.
On the same counts, the results for `CCC(C)C(Nc1ccc(C(=O)NCCC(=O)O)cc1)c1ccc(-c2nnc(-c3ccccc3)o2)cc1` (centres unmarked) [Compound 1-11, 3-(4-((2-Methyl-1-(4-(5-phenyl-1,3,4-oxadiazol-2-yl)phenyl)butyl)amino)benzamido)propanoic acid] are 2540 nM and 72 nM.
`CC(C)CC(Nc1ccc(C(=O)NCCC(=O)O)cc1)c1ccc(-c2noc(C(C)(C)C)n2)cc1` (centres unmarked) [Compound 2-6, 3-(4-((1-(4-(5-(tert-butyl)-1,2,4-oxadiazol-3-yl)phenyl)-3-methylbutyl)amino)benzamido)propanoic acid]: the values for the IC50 at glucagon receptor (GCGR) and on GCGR were 8630 nM and 226 nM, respectively.
On the same counts, the results for `CCOC(=O)CCNC(=O)c1ccc(N[C@@H](c2ccc(-c3nc4ccccc4o3)cc2)C(C)CC)cc1` (stereo partly drawn) [Compound 4-21, ethyl 3-(4-(((1R)-1-(4-(benzo[d]oxazol-2-yl)phenyl)-2-methylbutyl)amino)benzamido)propanoate] are 242 nM and 923 nM.
For `CCCCC(Nc1ccc(C(=O)NCCC(=O)OCC)cc1)c1ccc(-c2nnc(C(C)(C)C)o2)cc1` (centres unmarked) [Compound 1-19, Ethyl 3-(4-((1-(4-(5-(tert-butyl)-1,3,4-oxadiazol-2-yl)phenyl)pentyl)amino)benzamido)propanoate] the same measures were 203 nM and 4410 nM.
On to `CCOC(=O)CCNC(=O)c1ccc(N[C@H](CC(C)C)c2ccc(-c3nnc(-c4ccccc4)o3)cc2)cc1` [Compound 1-60, ethyl (R)-3-(4-((3-methyl-1-(4-(5-phenyl-1,3,4-oxadiazol-2-yl)phenyl)butyl)amino)benzamido)propanoate], for which the IC50 against glucagon receptor (GCGR) is 114 nM; on GCGR it was more than 30000 nM.
On the same counts, the results for `CC(C)C(Nc1ccc(C(=O)NCCC(=O)O)cc1)c1ccc(-c2noc(-c3ccc(F)cc3)n2)cc1` (centres unmarked) [Compound 2-25, 3-(4-((1-(4-(5-(4-fluorophenyl)-1,2,4-oxadiazol-3-yl)phenyl)-2-methylpropyl)amino)benzamido)propanoic acid] are 1190 nM and 58 nM.
For `CCCC[C@@H](Nc1ccc(C(=O)NCCC(=O)O)cc1)c1ccc(-c2noc(-c3ccccn3)n2)cc1` [Compound 2-40, (R)-3-(4-((1-(4-(5-(pyridin-2-yl)-1,2,4-oxadiazol-3-yl)phenyl)pentyl)amino)benzamido)propanoic acid] the same measures were 138 nM and 1020 nM.
On the same counts, the results for `CC(C)C(Nc1ccc(C(=O)NCCC(=O)O)cc1)c1ccc(-c2nnc(C(C)(C)C)o2)cc1` (centres unmarked) [Compound 1-24, 3-(4-((1-(4-(5-(tert-butyl)-1,3,4-oxadiazol-2-yl)phenyl)-2-methylpropyl)amino)benzamido)propanoic acid] are more than 30000 nM and 314 nM.
On to `CC(C)C(Nc1ccc(C(=O)NCCC(=O)O)cc1)c1ccc(-c2noc(-c3cccs3)n2)cc1` (centres unmarked) [Compound 2-12, 3-(4-((2-methyl-1-(4-(5-(thiophen-2-yl)-1,2,4-oxadiazol-3-yl)phenyl)propyl)amino)benzamido)propanoic acid], for which the concentration for half-maximal inhibition (IC50) against glucagon receptor (GCGR) came out at 504 nM; on GCGR, 354 nM.
For `CC(C)[C@@H](Nc1ccc(C(=O)NCCC(=O)O)cc1)c1ccc(-c2nnc(C(F)(F)F)o2)cc1` [Compound 1-58, (R)-3-(4-((2-methyl-1-(4-(5-(trifluoromethyl)-1,3,4-oxadiazol-2-yl)phenyl)propyl)amino)benzamido)propanoic acid] the same measures were more than 30000 nM and 875 nM.
For `CCOC(=O)CCNC(=O)c1ccc(N[C@H](c2ccc(-c3noc(-c4ccccc4)n3)cc2)C(C)CC)cc1` (stereo partly drawn) [Compound 2-18, ethyl 3-(4-(((1S)-2-methyl-(4-(5-phenyl-1,2,4-oxadiazol-3-yl)phenyl)butyl)amino)benzamido)propanoate] the same measures were 46.7 nM and 830 nM.
On the same counts, the results for `CCCCC(Nc1ccc(C(=O)NCCC(=O)OCC)cc1)c1ccc(-c2nnc(-c3ccccn3)o2)cc1` (centres unmarked) [Compound 1-15] are 306 nM and 578 nM.
As to `CCCCC(Nc1ccc(C(=O)NCCC(=O)OC)cc1)c1ccc(-c2nnc(-c3ccccn3)o2)cc1` (centres unmarked) [Compound 1-38, methyl 3-(4-((1-(4-(5-(pyridin-2-yl)-1,3,4-oxadiazol-2-yl)phenyl)pentyl)amino)benzamido)propanoate], the results for the IC50 at glucagon receptor (GCGR) and at GCGR were 80 nM and 1580 nM, respectively.
Take `CCC(C)[C@@H](Nc1ccc(C(=O)NCCC(=O)O)cc1)c1ccc(-c2noc(-c3ccccc3)n2)cc1` (stereo partly drawn) [Compound 2-21, 3-(4-(((1R)-2-methyl-1-(4-(5-phenyl-1,2,4-oxadiazol-3-yl)phenyl)butyl)amino)benzamido)propanoic acid]: the IC50 on glucagon receptor (GCGR) was found to be 569 nM; on GCGR, 85 nM.
For `CCC(C)C(Nc1ccc(-c2nnc(-c3ccccc3)o2)cc1)c1ccc(C(=O)NCCC(=O)O)cc1` (centres unmarked) [Compound 3-6, 3-(4-(2-methyl-1-((4-(5-phenyl-1,3,4-oxadiazol-2-yl)phenyl)amino)butyl)benzamido)propanoic acid] the same measures were 650 nM and 58 nM.
With `CC(C)C(Oc1ccc(C(=O)NCCC(=O)O)cc1)c1ccc(-c2nc3ccccc3s2)cc1` (centres unmarked) [Compound 6-2, 3-(4-(1-(4-(Benzo[d]thiazol-2-yl)phenyl)-2-methylpropoxy)benzamido)propanoic acid], the IC50 was found to be 133 nM at glucagon receptor (GCGR) and 1110 nM at GCGR.
For `CCOC(=O)CCNC(=O)c1ccc(N[C@H](c2ccc(-c3nc4ccccc4o3)cc2)C(C)C)cc1` [Compound 4-5, ethyl (S)-3-(4-((1-(4-(benzo[d]oxazol-2-yl)phenyl)-2-methylpropyl)amino)benzamido)propanoate] the same measures were 26.5 nM and 714 nM.
`CCCCC(Nc1ccc(C(=O)NCCC(=O)O)cc1)c1ccc(-c2nnc(-c3ccccn3)o2)cc1` (centres unmarked) [Compound 1-16, 3-(4-((1-(4-(5-(Pyridin-2-yl)-1,3,4-oxadiazol-2-yl)phenyl)pentyl)amino)benzamido)propanoic acid]: the IC50 against glucagon receptor (GCGR) turned out to be 15700 nM; on GCGR, 203 nM.
On the same counts, the results for `CCCCC(Nc1ccc(-c2nnc(-c3ccccc3)o2)cc1)c1ccc(C(=O)NCCC(=O)O)cc1` (centres unmarked) [Compound 3-1, 3-(4-(1-((4-(5-phenyl-1,3,4-oxadiazol-2-yl)phenyl)amino)pentyl)benzamido)propanoic acid] are 1740 nM and 25 nM.
For `CCOC(=O)CCNC(=O)c1ccc(N[C@@H](c2ccc(-c3noc(-c4ccccc4)n3)cc2)C(C)C)cc1` [Compound 2-22, ethyl (R)-3-(4-((2-methyl-1-(4-(5-phenyl-1,2,4-oxadiazol-3-yl)phenyl)propyl)amino)benzamido)propanoate] the same measures were 245 nM and 673 nM.
Turning to `CC(C)CC(Nc1ccc(C(=O)NCCC(=O)O)cc1)c1ccc(-c2nnc(-c3ccccc3)o2)cc1` (centres unmarked) [Compound 1-5, 3-(4-((3-Methyl-1-(4-(5-phenyl-1,3,4-oxadiazol-2-yl)phenyl)butyl)amino)benzamido)propanoic acid], the values for the IC50 at glucagon receptor (GCGR) and at GCGR were 4130 nM and 175 nM, respectively.
For `CCOC(=O)CCNC(=O)c1ccc(C(Oc2ccc(-c3nc4ccccc4s3)cc2)C(C)C)cc1` (centres unmarked) [Compound 7-3, Ethyl 3-(4-(1-(4-(benzo[d]thiazol-2-yl)phenoxy)-2-methylpropyl)benzamido)propanoate] the same measures were 292 nM and 2110 nM.
